Results published in US10131652B2, “Pyrimidinyloxy benzene derivatives as herbicides” (E. I. DU PONT DE NEMOURS AND COMPANY, priority 2014, dated 2018).
Where two headings read alike, the source gives them in different places.

How the values were obtained:
Assay in all cases: Test D pre-/postemergence plant response
Format in all cases: in vivo
[1] = tested on: blackgrass (Alopecurus myosuroides); conditions: Alopecurus myosuroides; for pest or weed control at 62 g/ha: 62 g ai/ha; for pest or weed control at 125 g/ha: 125 g ai/ha
Text: (§1) Seeds of plant species selected from blackgrass (Alopecurus myosuroides), Italian ryegrass (Lolium multiflorum), winter wheat (Triticum aestivum), galium (catchweed bedstraw, Galium aparine), corn (Zea mays), large (Lg) crabgrass (Digitaria sanguinalis), giant foxtail (Setaria faberii), johnsongrass (Sorghum halepense), lambsquarters (Chenopodium album), morningglory (Ipomoea coccinea), yellow nutsedge (Cyperus esculentus), pigweed (Amaranthus retroflexus), ragweed (common ragweed, Ambrosia elatior), soybean (Glycine max), bamyardgrass (Echinochloa crus-galli), oilseed rape (Brassica napus), waterhemp (common waterhemp, Amaranthus rudis), and velvetleaf (Abutilon theophrasti) were planted into a blend of loam soil and sand and treated preemergence with test chemicals formulated in a non-phytotoxic solvent mixture which included a surfactant. At the same time, plants selected from these crop and weed species and also kochia (Kochia scoparia), wild oat (Avena fatua), and chickweed (common chickweed, Stellaria media) were planted in pots containing Redi-Earth® planting medium (Scotts Company, 14111 Scottslawn Road, Marysville, Ohio 43041) comprising spaghnum peat moss, vermiculite, wetting agent and starter nutrients and treated with postemergence applications of test chemicals formulated in the same manner. Plants ranged in height from 2 to 18 cm (1- to 4-leaf stage) for postemergence treatments. Treated plants and controls were maintained in a greenhouse for 13 to 15 days, after which time all species were compared to controls and visually evaluated. Plant response ratings, summarized in Table D, are based on a scale of 0 to 100 where 0 is no effect and 100 is complete control. A dash (-) response means no test result.

[2] = tested on: winter wheat (Triticum aestivum); conditions: Triticum aestivum; for plant injury at 16 g/ha: 16 g ai/ha; for plant injury at 31 g/ha: 31 g ai/ha; for plant injury at 62 g/ha: 62 g ai/ha; for plant injury at 125 g/ha: 125 g ai/ha
Text: as §1

[3] = tested on: velvetleaf (Abutilon theophrasti); conditions: Abutilon theophrasti; for pest or weed control at 16 g/ha: 16 g ai/ha; for pest or weed control at 31 g/ha: 31 g ai/ha; for pest or weed control at 62 g/ha: 62 g ai/ha; for pest or weed control at 125 g/ha: 125 g ai/ha
Text: as §1

[4] = tested on: lambsquarters (Chenopodium album); conditions: Chenopodium album; for pest or weed control at 16 g/ha: 16 g ai/ha; for pest or weed control at 31 g/ha: 31 g ai/ha; for pest or weed control at 62 g/ha: 62 g ai/ha; for pest or weed control at 125 g/ha: 125 g ai/ha
Text: as §1

[5] = tested on: johnsongrass (Sorghum halepense); conditions: Sorghum halepense; for pest or weed control at 16 g/ha: 16 g ai/ha; for pest or weed control at 31 g/ha: 31 g ai/ha; for pest or weed control at 62 g/ha: 62 g ai/ha; for pest or weed control at 125 g/ha: 125 g ai/ha
Text: as §1

[6] = post-emergence, Postemergence, scale 0 to 100, 0 no effect, 100 complete control, read-out: Plant response rating, Blackgrass
[7] = post-emergence, Postemergence, scale 0 to 100 (0 no effect, 100 complete control), read-out: Wheat plant response rating
[8] = post-emergence, Postemergence, scale 0 to 100, 0 no effect, 100 complete control, read-out: Plant response rating, Wheat
[9] = pre-emergence, Preemergence, scale 0 to 100 (0 no effect, 100 complete control), read-out: Plant response rating, Wheat
[10] = post-emergence, Postemergence, scale 0 to 100 (0 no effect, 100 complete control), read-out: Velvetleaf plant response rating
[11] = post-emergence, Postemergence, scale 0 to 100, 0 no effect, 100 complete control, read-out: Plant response rating, Velvetleaf
[12] = pre-emergence, Preemergence, scale 0 to 100 (0 no effect, 100 complete control), read-out: Plant response rating, Velvetleaf
[13] = post-emergence, Postemergence, scale 0 to 100 (0 no effect, 100 complete control), read-out: Lambsquarters plant response rating
[14] = post-emergence, Postemergence, scale 0 to 100, 0 no effect, 100 complete control, read-out: Plant response rating, Lambsquarters
[15] = pre-emergence, Preemergence, scale 0 to 100 (0 no effect, 100 complete control), read-out: Plant response rating, Lambsquarters
[16] = post-emergence, Postemergence, scale 0 to 100 (0 no effect, 100 complete control), read-out: Johnsongrass plant response rating
[17] = post-emergence, Postemergence, scale 0 to 100, 0 no effect, 100 complete control, read-out: Plant response rating, Johnsongrass
[18] = pre-emergence, Preemergence, scale 0 to 100 (0 no effect, 100 complete control), read-out: Plant response rating, Johnsongrass

Structure (SMILES): FC(F)c1cc(-c2ccccc2Oc2ncc(Cl)cn2)on1 [Compound 53, 5-chloro-2-[2-[3-(difluoromethyl)-5-isoxazolyl]phenoxy]pyrimidine]
- pest or weed control at 62 g/ha [1, 6]: 20%
- pest or weed control at 125 g/ha [1, 6]: 30%
- pest or weed control at 125 g/ha ([1]; pre-emergence, Preemergence, read-out: Plant response rating (scale 0 to 100), Blackgrass): 95%
- pest or weed control at 16 g/ha ([1]; pre-emergence, Preemergence, 16 g ai/ha, scale 0 to 100 (0 no effect, 100 complete control), read-out: Plant response rating, Blackgrass): 5%
- pest or weed control at 31 g/ha ([1]; pre-emergence, Preemergence, 31 g ai/ha, scale 0 to 100 (0 no effect, 100 complete control), read-out: Plant response rating, Blackgrass): 25%
- pest or weed control at 62 g/ha ([1]; pre-emergence, Preemergence, scale 0 to 100 (0 no effect, 100 complete control), read-out: Plant response rating, Blackgrass): 90%
- plant injury at 16 g/ha [2, 7]: 0%
- plant injury at 31 g/ha [2, 7]: 0%
- plant injury at 62 g/ha [2, 8]: 0%
- plant injury at 125 g/ha [2, 8]: 0%
- plant injury at 125 g/ha ([2]; pre-emergence, Preemergence, read-out: Plant response rating (scale 0 to 100), Wheat): 5%
- plant injury at 16 g/ha [2, 9]: 0%
- plant injury at 31 g/ha [2, 9]: 0%
- plant injury at 62 g/ha [2, 9]: 0%
- pest or weed control at 16 g/ha [3, 10]: 55%
- pest or weed control at 31 g/ha [3, 10]: 60%
- pest or weed control at 62 g/ha [3, 11]: 70%
- pest or weed control at 125 g/ha [3, 11]: 100%
- pest or weed control at 125 g/ha ([3]; pre-emergence, Preemergence, read-out: Plant response rating (scale 0 to 100), Velvetleaf): 100%
- pest or weed control at 16 g/ha [3, 12]: 100%
- pest or weed control at 31 g/ha [3, 12]: 100%
- pest or weed control at 62 g/ha [3, 12]: 100%
- pest or weed control at 16 g/ha [4, 13]: 70%
- pest or weed control at 31 g/ha [4, 13]: 80%
- pest or weed control at 62 g/ha [4, 14]: 100%
- pest or weed control at 125 g/ha [4, 14]: 100%
- pest or weed control at 125 g/ha ([4]; pre-emergence, Preemergence, read-out: Plant response rating (scale 0 to 100), Lambsquarters): 100%
- pest or weed control at 16 g/ha [4, 15]: 100%
- pest or weed control at 31 g/ha [4, 15]: 100%
- pest or weed control at 62 g/ha [4, 15]: 100%
- pest or weed control at 16 g/ha [5, 16]: 0%
- pest or weed control at 31 g/ha [5, 16]: 0%
- pest or weed control at 62 g/ha [5, 17]: 5%
- pest or weed control at 125 g/ha [5, 17]: 5%
- pest or weed control at 125 g/ha ([5]; pre-emergence, Preemergence, read-out: Plant response rating (scale 0 to 100), Johnsongrass): 55%
- pest or weed control at 16 g/ha [5, 18]: 0%
- pest or weed control at 31 g/ha [5, 18]: 0%
- pest or weed control at 62 g/ha [5, 18]: 35%
